Measured values as given in the Bradley open melting point set (2014).
Values joined by “and” are separate entries in the source; they are usually repeats but may differ in a detail not shown here. Equal entries are not always repeated.

melting point | SMILES
-10 °C | CCCCCCCCCCCC(=O)OCCCC [N-butyl dodecanoate]
114 °C | CCOC(=O)Nc1ccc(NCc2ccc(F)cc2)nc1N [flupirtine]
125 °C | Nc1cccc(O)c1 [m-aminophenol]
96 °C | C=Cc1cccc(C(=O)O)c1 [m-vinylbenzoic_acid]
55 °C | CCOC(=O)c1ccc(C(C)=O)cc1 [ethyl_p-acetylbenzoate]
147 °C | O=C(O)C(c1ccccc1)c1ccccc1 [diphenylacetic acid]
69 °C | CCCC(=O)OCSc1ncnc2c1ncn2COC(=O)CCC [S6,9-Bis(butanoyloxymethyl)-6-mercaptopurine]
320 °C | O=C1OC2(c3ccc(O)cc3Oc3cc(O)ccc32)c2ccccc21 [fluorescein]
-15 °C | O=C(O)C(F)(F)F [Trifluoroacetic acid]
148 °C | Clc1ccccc1C(c1ccccc1)(c1ccccc1)n1ccnc1 [Clotrimazole]
7 °C | CCOC(=O)/C=C/c1ccccc1 [ethyl cinnamate]
236 °C | N[C@@H](Cc1cc(I)c(Oc2cc(I)c(O)c(I)c2)c(I)c1)C(=O)O [Levothyroxine]
58 °C | O=Cc1cccc(I)c1 [m-iodobenzaldehyde]
123 °C | NC(=S)c1ccccn1 [pyridine-2-thiocarboxamide]
174 °C | CC[C@H](C)C(=O)O[C@H]1C[C@@H](C)C=C2C=C[C@H](C)[C@H](CC[C@@H]3C[C@@H](O)CC(=O)O3)[C@H]21 [Lovastatin]
106 °C | O=C(NCc1ccccc1)c1ccccc1 [N-benzylbenzamide]
115 °C | CCCC(N)=O [butyramide]
57 °C | O/N=C/c1ccccc1O [salicylaldoxime]
104 °C | CCCC(=O)NNc1ccccc1 [N'-phenylbutanehydrazide]
104 °C | O[C@H]1CCCC[C@@H]1O (relative stereo) [trans-1,2-cyclohexanediol]
71 °C | CCN(CC)C(=S)SSC(=S)N(CC)CC [tetraethylthiuram disulfide]
-98 °C | COC(C)=O [Methyl acetate]
248 °C | Nc1cc(N2CCCCC2)nc(N)[n+]1[O-] [minoxidil]
132 °C | CN(C)C(=O)Nc1ccccc1 [Fenuron]
149 °C | COc1ccc(C(C)=CC(=O)O)c(OC)c1 [Hepadial]
282 °C | C[C@]12CC[C@@H]3c4ccc(O)cc4CC[C@H]3[C@@H]1C[C@@H](O)[C@@H]2O [Estriol]
282 °C | CCC1(c2ccccc2)C(=O)NCNC1=O [Primidone]
39 °C | COC(=O)c1ccc(F)cc1O [methyl 4-fluorosalicylate]

Continued, compound first:

SMILES | melting point
O=S1(=O)OC(c2cc(Br)c(O)c(Br)c2)(c2cc(Br)c(O)c(Br)c2)c2ccccc21 | 204 °C
CCCCBr [1-bromobutane] | -112 °C
COC1=C(OC)/C(=C\CN=[N+]=[N-])OC1=O [(5E)-5-(2-azidoethylidene)-3,4-dimethoxyfuran-2(5H)-one] | 56 °C
CC(C)O [2-propanol] | -88 °C
BrCCCCBr [1,4-dibromobutane] | -17 °C
C/C(=C(/C#N)c1nc2ccccc2s1)c1cc2ccccc2oc1=O | 156 °C
COc1ccc(CCCC(=O)O)cc1 [4-(4-methoxyphenyl)butanoic acid] | 59 °C
Cc1ccc(O)c(O)c1 [4-methylcatechol] | 68 °C
O=Cc1ccc(Cl)c(Cl)c1 [3,4-dichlorobenzaldehyde] | 44 °C
O=C(O)c1cccc(O)c1O [2,3-dihydroxybenzoic acid] | 206 °C
c1ccc2c(c1)CCCC2 [1,2,3,4-Tetrahydronaphthalene] | -31 °C
CCSc1nnn[nH]1 [5-(ethylthio)-1h-tetrazole] | 76 °C
Cc1cc(O)c(C)c(=O)o1 [3,6-dimethyl-4-hydroxy-2-pyrone] | 210 °C
Cc1ccccc1CO [2-methylbenzyl_alcohol] | 39 °C
O=C(c1ccccc1)c1ccc(C(F)(F)F)cc1 [4-(trifluoromethyl)benzophenone] | 118 °C
Nc1ncc(Br)cc1Br [2-amino-3,5-dibromopyridine] | 104 °C
O=S(=O)(Cl)c1ccccc1 [benzenesulfonyl chloride] | 15 °C
CCC1(CCC(C)C)C(=O)NC(=O)NC1=O [Inmetal] | 156 °C
CN(C)C(=O)Nc1ccc(Cl)c(Cl)c1 [3-(3,4-dichlorophenyl)-1,1-dimethylurea] | 158 °C
CC(=O)/C(=N/Nc1cccc(C(F)(F)F)c1)C(=O)C(F)(F)F | 86 °C
O=C(O)C1COc2ccccc2O1 (stereo not drawn) [1,4-benzodioxane-2-carboxylic acid] | 124 °C
C[C@H]1C[C@H]2[C@@H]3CCC4=CC(=O)C=C[C@]4(C)[C@@]3(Cl)[C@@H](O)C[C@]2(C)[C@@]1(O)C(=O)CO [Beclomethasone] | 118 °C
O=C(O)CC1Sc2ccccc2NC1=O (stereo not drawn) [3,4-dihydro-3-oxo-2h-1,4-benzothiazine-2-acetic acid] | 188 °C

SMILES | melting point
CN(C)c1ccc(/C=C(\C#N)c2nc(-c3cccc4ccccc34)cs2)cc1 | 129 °C
Cc1ccc(C)c(C(=O)O)c1 | 134 °C
C=C(C)CCC(=C)C [2,5-dimethyl-1,5-hexadiene] | -75 °C
CCCCCCCCCCCl [1-chlorodecane] | -31 °C
COc1ccc(O)cc1 [4-Methoxyphenol] | 56 °C
O=C1C[C@@H]2OCC=C3CN4CC[C@]56c7ccccc7N1[C@H]5[C@H]2[C@H]3C[C@H]46 [strychnine] | 280 °C
CCCCC(CC)CN (stereo not drawn) [2-ethylhexylamine] | -76 °C
CCc1nc(N)nc(Cl)c1C [4-chloro-6-ethyl-5-methylpyrimidin-2-amine] | 139 °C
O=C(O)Cc1cccc([N+](=O)[O-])c1 [3-nitrophenylacetic acid] | 119 °C
O=S(=O)(Cl)c1ccccc1 [Benzenesulfonyl chloride] | 15 °C
CCC#N [propionitrile] | -93 °C and -92 °C
O=Cc1ccc(B(O)O)cc1Cl [3-chloro-4-formylbenzeneboronic acid] | 212 °C
Clc1c2ccccc2cc2ccccc12 [9-chloroanthracene] | 104 °C
Cc1ccccn1 [2-picoline] | -70 °C
OC(C(F)(F)F)C(F)(F)F [1,1,1,3,3,3-hexafluoro-2-propanol] | -3 °C
CC(C)(O)CCc1ccccc1 [4-phenyl-2-methyl-2-butanol] | 32 °C
Oc1cc(C(F)(F)F)n2nc(-c3ccc(Cl)cc3)cc2n1 | 156 °C
Oc1ccccc1Br [2-bromophenol] | 5 °C
Oc1ccccc1-c1nc2ccccc2s1 [2-(2-hydroxyphenyl)benzothiazole] | 132 °C
COc1ccc(C(C)=O)cc1OC [3,4-dimethoxyacetophenone] | 51 °C
CC(C)(C)c1ccc(C2CCC3(CC2)Cc2ccc(C(=O)Nc4ccccc4OCCCC(=O)O)cc2C3)cc1 (stereo not drawn) | 147 °C
Clc1cc(Cl)c(-c2ccccc2)cc1Cl [2,4,5-trichlorobiphenyl] | 78 °C
